# According to publication PMC9558617 (ACS infectious diseases, 2022):
# Experiments:
# Format in all cases: cell-based, Mycobacterium tuberculosis
# [1] = test system: Mtb strain B3 tatA
# [2] = test system: Q112-resistant Mtb strains; test: microbe, parasite or virus in culture
# [3] = test system: Mtb strain A3 tatB
# [4] = test system: Mtb strain A6 tatB
# [5] = test system: Mtb strain B1 tatC
# [6] = test system: Mtb strain B2 tatC
compound,measurement,setting,value
CC(C)/N=c1\cc2n(-c3ccc(Cl)cc3)c3ccccc3nc-2cc1Nc1ccc(Cl)cc1 [Clofazimine],resistance (MIC increase) versus wild-type,[1],4 fold
CC1(C)S[C@@H]2[C@H](NC(=O)[C@H](N)c3ccccc3)C(=O)N2[C@H]1C(=O)O [Ampicillin],factor of MIC decrease (hypersensitivity) versus wild-type,[2],> 16 factor
same,MIC,[2]; Mycobacterium tuberculosis,1.6 to 3.1 µM
C[C@@H](O)[C@H]1C(=O)N2C(C(=O)O)=C(SCCN=CN)C[C@H]12 [Imipenem],resistance (MIC increase) versus wild-type,[1],16 fold
CO[C@H]1/C=C/O[C@@]2(C)Oc3c(C)c(O)c4c(O)c(c(/C=N/N5CCN(C)CC5)c(O)c4c3C2=O)NC(=O)/C(C)=C\C=C\[C@H](C)[C@H](O)[C@@H](C)[C@@H](O)[C@@H](C)[C@H](OC(C)=O)[C@@H]1C [Rifampicin],factor of MIC decrease (hypersensitivity) versus wild-type,[2],3–6 factor
C[C@]1(COc2ccc(N3CCC(Oc4ccc(OC(F)(F)F)cc4)CC3)cc2)Cn2cc([N+](=O)[O-])nc2O1 [Delamanid],MIC increase versus wild-type,[2],3–12 fold
CN[C@H](CC(C)C)C(=O)N[C@H]1C(=O)N[C@@H](CC(N)=O)C(=O)N[C@H]2C(=O)N[C@H]3C(=O)N[C@H](C(=O)N[C@H](C(=O)O)c4cc(O)cc(O)c4-c4cc3ccc4O)[C@H](O)c3ccc(c(Cl)c3)Oc3cc2cc(c3O[C@@H]2O[C@H](CO)[C@@H](O)[C@H](O)[C@H]2O[C@H]2C[C@](C)(N)[C@H](O)[C@H](C)O2)Oc2ccc(cc2Cl)[C@H]1O [Vancomycin],factor of MIC decrease (hypersensitivity) versus wild-type,[2],4–5 factor
Capreomycin,MIC A3 tatB,[3],0.78 µM
same,MIC A6 tatB,[4],1.2 µM
same,MIC B1 tatC,[5],0.78 µM
same,MIC B2 tatC,[6],1.2 µM
same,MIC B3 tatA,[1],0.78 µM
